Results as given in PubChem BioAssay (NCI).
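How tested: cells in 96-well plates exposed to compound for 48 hours at five concentrations. At the GI50, growth is halved. TGI: total growth inhibition.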

Columns and labels:
Test in all cases: growth of human tumour cells (NCI), 48 h
CCRF-CEM leukemia = system: CCRF-CEM leukemia
SNB-75 CNS = system: SNB-75 CNS
K-562 leukemia = system: K-562 leukemia
MALME-3M melanoma = system: MALME-3M melanoma
OVCAR-3 ovarian = system: OVCAR-3 ovarian
HCC-2998 colon = system: HCC-2998 colon
786-0 renal = system: 786-0 renal
OVCAR-5 ovarian = system: OVCAR-5 ovarian
NCI-H522 lung = system: NCI-H522 lung
ACHN renal = system: ACHN renal
DU-145 prostate = system: DU-145 prostate
SN12C renal = system: SN12C renal
SR leukemia = system: SR leukemia
UACC-62 melanoma = system: UACC-62 melanoma
RXF 393 renal = system: RXF 393 renal
OVCAR-4 ovarian = system: OVCAR-4 ovarian
SNB-19 CNS = system: SNB-19 CNS
MOLT-4 leukemia = system: MOLT-4 leukemia
NCI/ADR-RES ovarian = system: NCI/ADR-RES ovarian
SF-539 CNS = system: SF-539 CNS
A498 renal = system: A498 renal
NCI-H23 lung = system: NCI-H23 lung
NCI-H460 lung = system: NCI-H460 lung
SK-MEL-2 melanoma = system: SK-MEL-2 melanoma
SK-OV-3 ovarian = system: SK-OV-3 ovarian
IGROV1 ovarian = system: IGROV1 ovarian
HOP-62 NSCLC = system: HOP-62 NSCLC
SW-620 colon = system: SW-620 colon
SK-MEL-5 melanoma = system: SK-MEL-5 melanoma
HOP-92 NSCLC = system: HOP-92 NSCLC
T-47D breast = system: T-47D breast
M14 melanoma = system: M14 melanoma
UACC-257 melanoma = system: UACC-257 melanoma
UO-31 renal = system: UO-31 renal
LOX IMVI melanoma = system: LOX IMVI melanoma
SK-MEL-28 melanoma = system: SK-MEL-28 melanoma
SF-295 CNS = system: SF-295 CNS
RPMI-8226 leukemia = system: RPMI-8226 leukemia
U251 CNS = system: U251 CNS
HT29 colon = system: HT29 colon
KM12 colon = system: KM12 colon
CAKI-1 renal = system: CAKI-1 renal
MDA-MB-435 = system: MDA-MB-435
TK-10 renal = system: TK-10 renal
HCT-15 colon = system: HCT-15 colon
BT-549 breast = system: BT-549 breast
SF-268 CNS = system: SF-268 CNS
MCF7 breast = system: MCF7 breast
HS 578T breast = system: HS 578T breast
A549 NSCLC = system: A549 NSCLC
EKVX NSCLC = system: EKVX NSCLC
OVCAR-8 ovarian = system: OVCAR-8 ovarian
NCI-H226 lung = system: NCI-H226 lung
PC-3 prostate = system: PC-3 prostate
MDA-MB-231 breast = system: MDA-MB-231 breast
COLO 205 colon = system: COLO 205 colon
HL-60(TB) leukemia = system: HL-60(TB) leukemia
HCT-116 colon = system: HCT-116 colon

C=C1C(=O)O[C@@H]2[C@@H]3O[C@@H](C[C@@H]13)[C@](C)(O)CC/C=C(\C)CCC[C@H]2C
GI50 (CCRF-CEM leukemia): 0.394 µM
TGI (CCRF-CEM leukemia): 1.91 µM
GI50 (SNB-75 CNS): 14.1 µM
TGI (SNB-75 CNS): > 35.8 µM
GI50 (K-562 leukemia): 0.416 µM
TGI (K-562 leukemia): 4.01 µM
GI50 (MALME-3M melanoma): 0.18 µM
TGI (MALME-3M melanoma): 2.61 µM
GI50 (OVCAR-3 ovarian): 1.65 µM
TGI (OVCAR-3 ovarian): 3.86 µM
GI50 (HCC-2998 colon): 0.83 µM
TGI (HCC-2998 colon): 3.88 µM
GI50 (786-0 renal): 2.56 µM
TGI (786-0 renal): 9.03 µM
GI50 (OVCAR-5 ovarian): 3.19 µM
TGI (OVCAR-5 ovarian): 12.6 µM
GI50 (NCI-H522 lung): 1.65 µM
TGI (NCI-H522 lung): 4.05 µM
GI50 (ACHN renal): 0.926 µM
TGI (ACHN renal): 2.34 µM
GI50 (DU-145 prostate): 3.08 µM
TGI (DU-145 prostate): 12.6 µM
GI50 (SN12C renal): 2.06 µM
TGI (SN12C renal): 6.64 µM
GI50 (SR leukemia): 0.395 µM
TGI (SR leukemia): 2.05 µM
GI50 (UACC-62 melanoma): 3.51 µM
TGI (UACC-62 melanoma): 14.1 µM
GI50 (RXF 393 renal): 1.77 µM
GI50 (OVCAR-4 ovarian): 2.38 µM
TGI (OVCAR-4 ovarian): > 23 µM
GI50 (SNB-19 CNS): 29 µM
TGI (SNB-19 CNS): > 49 µM
GI50 (MOLT-4 leukemia): 1.39 µM
TGI (MOLT-4 leukemia): 3.37 µM
GI50 (NCI/ADR-RES ovarian): 0.523 µM
TGI (NCI/ADR-RES ovarian): 2.13 µM
GI50 (SF-539 CNS): 13 µM
TGI (SF-539 CNS): 25.7 µM
GI50 (A498 renal): 20.9 µM
TGI (A498 renal): 35.5 µM
TGI (NCI-H23 lung): 3.67 µM
GI50 (NCI-H460 lung): > 100 µM
TGI (NCI-H460 lung): > 100 µM
GI50 (SK-MEL-2 melanoma): 9.32 µM
TGI (SK-MEL-2 melanoma): 24.2 µM
GI50 (SK-OV-3 ovarian): 28.7 µM
TGI (SK-OV-3 ovarian): > 50.4 µM
GI50 (IGROV1 ovarian): 1.06 µM
TGI (IGROV1 ovarian): 4.92 µM
TGI (HOP-62 NSCLC): 31.7 µM
GI50 (SW-620 colon): 0.739 µM
TGI (SW-620 colon): 2.31 µM
GI50 (SK-MEL-5 melanoma): 5.57 µM
TGI (SK-MEL-5 melanoma): 13.9 µM
GI50 (HOP-92 NSCLC): 0.5 µM
TGI (HOP-92 NSCLC): 2.39 µM
TGI (T-47D breast): > 22.6 µM
GI50 (M14 melanoma): 1.83 µM
TGI (M14 melanoma): 3.75 µM
GI50 (UACC-257 melanoma): 4.9 µM
TGI (UACC-257 melanoma): 14.9 µM
GI50 (UO-31 renal): 1.25 µM
TGI (UO-31 renal): 2.79 µM
GI50 (LOX IMVI melanoma): 1.51 µM
TGI (LOX IMVI melanoma): 3 µM
GI50 (SK-MEL-28 melanoma): 2.36 µM
TGI (SK-MEL-28 melanoma): > 21.8 µM
GI50 (SF-295 CNS): 9.38 µM
TGI (SF-295 CNS): 23.9 µM
GI50 (RPMI-8226 leukemia): 0.258 µM
TGI (RPMI-8226 leukemia): 1.47 µM
GI50 (U251 CNS): 2.84 µM
TGI (U251 CNS): 12.8 µM
GI50 (HT29 colon): 3.69 µM
TGI (HT29 colon): > 33.9 µM
GI50 (KM12 colon): 6.35 µM
TGI (KM12 colon): 18.1 µM
GI50 (CAKI-1 renal): 0.957 µM
TGI (CAKI-1 renal): 2.59 µM
GI50 (MDA-MB-435): 1.97 µM
TGI (MDA-MB-435): 6.17 µM
GI50 (TK-10 renal): 1.5 µM
TGI (TK-10 renal): 3.26 µM
GI50 (HCT-15 colon): 1.39 µM
TGI (HCT-15 colon): 2.74 µM
GI50 (BT-549 breast): 1.84 µM
TGI (BT-549 breast): 4.86 µM
GI50 (SF-268 CNS): > 100 µM
TGI (SF-268 CNS): > 100 µM
GI50 (MCF7 breast): > 100 µM
TGI (MCF7 breast): > 100 µM
GI50 (HS 578T breast): 5.99 µM
TGI (HS 578T breast): 24.9 µM
GI50 (A549 NSCLC): 9.21 µM
TGI (A549 NSCLC): 25.2 µM
GI50 (EKVX NSCLC): 7.55 µM
TGI (EKVX NSCLC): 20 µM
GI50 (OVCAR-8 ovarian): 1.91 µM
TGI (OVCAR-8 ovarian): 10.4 µM
GI50 (NCI-H226 lung): 2.08 µM
TGI (NCI-H226 lung): 7.4 µM
GI50 (PC-3 prostate): 1.76 µM
TGI (PC-3 prostate): 5.27 µM
GI50 (MDA-MB-231 breast): 1.51 µM
TGI (MDA-MB-231 breast): 4.14 µM

C[N+]1([O-])CCC(O)(C2CC2)CC1 (centres undefined)
TGI (CCRF-CEM leukemia): > 100 µM
TGI (SNB-75 CNS): > 100 µM
TGI (K-562 leukemia): > 100 µM
TGI (MALME-3M melanoma): > 100 µM
TGI (OVCAR-3 ovarian): > 100 µM
TGI (HCC-2998 colon): > 100 µM
TGI (COLO 205 colon): > 100 µM
TGI (786-0 renal): > 100 µM
TGI (OVCAR-5 ovarian): > 100 µM
TGI (ACHN renal): > 100 µM
TGI (DU-145 prostate): > 100 µM
TGI (SN12C renal): > 100 µM
TGI (SR leukemia): > 100 µM
TGI (UACC-62 melanoma): > 100 µM
TGI (RXF 393 renal): > 100 µM
TGI (HL-60(TB) leukemia): > 100 µM
TGI (OVCAR-4 ovarian): > 100 µM
TGI (SNB-19 CNS): > 100 µM
TGI (MOLT-4 leukemia): > 100 µM
TGI (NCI/ADR-RES ovarian): > 100 µM
TGI (NCI-H23 lung): > 100 µM
TGI (SK-MEL-2 melanoma): > 100 µM
TGI (SK-OV-3 ovarian): > 100 µM
TGI (IGROV1 ovarian): > 100 µM
TGI (HOP-62 NSCLC): > 100 µM
TGI (SW-620 colon): > 100 µM
TGI (SK-MEL-5 melanoma): > 100 µM
TGI (T-47D breast): > 100 µM
TGI (M14 melanoma): > 100 µM
TGI (UACC-257 melanoma): > 100 µM
TGI (UO-31 renal): > 100 µM
TGI (LOX IMVI melanoma): > 100 µM
TGI (SK-MEL-28 melanoma): > 100 µM
TGI (SF-295 CNS): > 100 µM
TGI (RPMI-8226 leukemia): > 100 µM
TGI (U251 CNS): > 100 µM
TGI (HT29 colon): > 100 µM
TGI (HCT-116 colon): > 100 µM
TGI (KM12 colon): > 100 µM
TGI (CAKI-1 renal): > 100 µM
TGI (MDA-MB-435): > 100 µM
TGI (TK-10 renal): > 100 µM
TGI (HCT-15 colon): > 100 µM
TGI (BT-549 breast): > 100 µM
TGI (SF-268 CNS): > 100 µM
TGI (MCF7 breast): > 100 µM
TGI (HS 578T breast): > 100 µM
TGI (A549 NSCLC): > 100 µM
TGI (EKVX NSCLC): > 100 µM
TGI (OVCAR-8 ovarian): > 100 µM
TGI (NCI-H226 lung): > 100 µM
TGI (PC-3 prostate): > 100 µM
TGI (MDA-MB-231 breast): > 100 µM
